Reference: patent US7514448B2, “Azaindoles useful as inhibitors of rock and other protein kinases” (Vertex Pharmaceuticals Incorporated, priority 2004, dated 2009)

How the values were obtained:
PKA = PKA (Homo sapiens, UniProt P17612); test: PKA inhibition assay, coupled enzyme; type: biochemical; settings: average Ki if more than one determined
Procedure, shortened: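 Coupled PK/LDH assay following NADH depletion: 18 nM PKA, 50 μM ATP, 80 μM Kemptide in 100 mM HEPES pH 7.5, 10 mM MgCl2, 25 mM NaCl, 1 mM DTT, 3% DMSO, at 30 °C. Compound preincubated 10 min before ATP start; initial rates over 15 min, IC50 and Ki by non-linear regression.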

ROCK I (AA 6-553) = ROCK I (AA 6-553) (Homo sapiens, UniProt Q13464); test: ROCK inhibition assay, coupled enzyme system ("Enzyme"); type: biochemical; settings: enzyme-linked assay; average Ki if more than one determined
Experimental: Reactions were carried out in a solution containing 100 mM HEPES (pH 7.5), 10 mM MgCl2, 25 mM NaCl, 2 mM DTT and 1.5% DMSO.
If more than one value of Ki has been determined, the average Ki is indicated. If no value is indicated, then the Ki was not determined.

ROCK I (AA 6-553), sequence (Q13464 6-553, species assumed): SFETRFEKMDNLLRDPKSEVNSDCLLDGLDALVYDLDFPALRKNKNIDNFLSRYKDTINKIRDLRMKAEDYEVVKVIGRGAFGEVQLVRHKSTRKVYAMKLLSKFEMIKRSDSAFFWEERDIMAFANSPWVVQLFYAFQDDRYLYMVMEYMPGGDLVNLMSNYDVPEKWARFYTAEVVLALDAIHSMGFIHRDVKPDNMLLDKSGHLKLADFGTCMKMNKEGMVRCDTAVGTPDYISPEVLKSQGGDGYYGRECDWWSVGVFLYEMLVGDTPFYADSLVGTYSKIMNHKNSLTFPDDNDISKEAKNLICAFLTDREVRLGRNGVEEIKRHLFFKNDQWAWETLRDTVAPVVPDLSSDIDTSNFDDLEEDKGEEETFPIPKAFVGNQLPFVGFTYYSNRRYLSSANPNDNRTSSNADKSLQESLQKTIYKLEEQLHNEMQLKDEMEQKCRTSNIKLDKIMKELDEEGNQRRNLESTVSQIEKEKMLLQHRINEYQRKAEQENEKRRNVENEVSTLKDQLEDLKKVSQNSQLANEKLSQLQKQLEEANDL

| Compound | Ki (PKA) [nM] | Ki (ROCK I (AA 6-553)) [nM] |
| --- | --- | --- |
| O=C(Cc1cc2c(cc1Cl)OCO2)Nc1nnc(-c2c[nH]c3ncccc23)s1 [II-10] | 500 to 5000 | < 500 |
| O=C(Cc1ccccc1F)Nc1nc(-c2c[nH]c3nccc(F)c23)cs1 [II-11] | < 500 | < 500 |
| O=C(Cc1ccc(F)cc1)Nc1nc(-c2c[nH]c3nccc(F)c23)cs1 [II-12] | < 500 | < 500 |
| O=C(Cc1ccc(F)cc1F)Nc1nc(-c2c[nH]c3nccc(F)c23)cs1 [II-13] | < 500 | < 500 |
| CS(=O)(=O)Nc1cccc(CC(=O)Nc2nc(-c3c[nH]c4nccc(F)c34)cs2)c1 [II-14] | 500 to 5000 | < 500 |
| O=C(CCc1ccccc1)Nc1nc(-c2c[nH]c3nccc(F)c23)cs1 [II-15] | < 500 | < 500 |
| O=C(Cc1ccccc1)Nc1nc(-c2c[nH]c3nccc(F)c23)cs1 [II-16] | < 500 | < 500 |
| O=C(Cc1cccc(OCCCC2CCNCC2)c1)Nc1nc(-c2c[nH]c3nccc(F)c23)cs1 [II-17] | 500 to 5000 | < 500 |
| O=C(Cc1ccc2c(c1)OCO2)Nc1nc(-c2c[nH]c3nccc(F)c23)cs1 [II-18] | < 500 | < 500 |
| COc1cccc(CC(=O)Nc2nc(-c3c[nH]c4nccc(F)c34)cs2)c1 [II-19] | < 500 | < 500 |
| O=C(Cc1cc2c(cc1Cl)OCO2)Nc1nc(-c2c[nH]c3nccc(F)c23)cs1 [II-20] | < 500 | < 500 |
| COc1cccc(CC(=O)Nc2cc(-c3c[nH]c4ncccc34)cs2)c1 [II-23] | < 500 | < 500 |
| CCN(CC)S(=O)(=O)c1cccc(CC(=O)Nc2nc(-c3c[nH]c4ncccc34)cs2)c1 [II-24] | 500 to 5000 | < 500 |
| O=C(Cc1cccc(S(=O)(=O)N2CCNCC2)c1)Nc1nc(-c2c[nH]c3ncccc23)cs1 [II-25] | < 500 | < 500 |
| O=C(Cc1cccc(S(=O)(=O)N2CCOCC2)c1)Nc1nc(-c2c[nH]c3ncccc23)cs1 [II-26] | 500 to 5000 | < 500 |
| CS(=O)(=O)Nc1cccc(CC(=O)N(c2nc(-c3c[nH]c4ncccc34)cs2)C2CC2)c1 [II-27] | < 500 | < 500 |
| O=C(NCc1ccc(F)cc1F)c1ccc(-c2c[nH]c3ncccc23)s1 [II-28] | < 500 | < 500 |
| O=C(NCc1ccccc1)c1ccc(-c2c[nH]c3ncccc23)s1 [II-29] | < 500 | < 500 |
| COc1cccc(CNC(=O)c2ccc(-c3c[nH]c4ncccc34)s2)c1 [II-30] | < 500 | < 500 |
| O=C(NCCc1ccccc1)c1ccc(-c2c[nH]c3ncccc23)s1 [II-31] | < 500 | < 500 |

| Compound | Ki (PKA) [nM] | Ki (ROCK I (AA 6-553)) [nM] |
| --- | --- | --- |
| O=C(NCCc1cccc(F)c1)c1ccc(-c2c[nH]c3ncccc23)s1 [II-32] | < 500 | < 500 |
| CS(=O)(=O)Nc1cccc(CC(=O)Nc2cc(-c3c[nH]c4ncccc34)cs2)c1 [II-33] | < 500 | < 500 |
| Nc1ccc(CC(=O)Nc2nc(-c3c[nH]c4ncccc34)cs2)c(Cl)c1 [II-34] | < 500 | < 500 |
| CCS(=O)(=O)Nc1ccc(CC(=O)Nc2nc(-c3c[nH]c4ncccc34)cs2)c(Cl)c1 [II-35] | 500 to 5000 | < 500 |
| O=C(Cc1cccc(OCCCN2CCNCC2)c1)Nc1nc(-c2c[nH]c3nccc(F)c23)cs1 [II-36] | 500 to 5000 | < 500 |
| CN1CCN(CCCOc2cccc(CC(=O)Nc3nc(-c4c[nH]c5nccc(F)c45)cs3)c2)CC1 [II-37] | 500 to 5000 | < 500 |
| O=C(Cc1cccc(OCCCn2ccnc2)c1)Nc1nc(-c2c[nH]c3nccc(F)c23)cs1 [II-38] | 500 to 5000 | < 500 |
| NC(=O)c1cccc(CC(=O)Nc2nc(-c3c[nH]c4ncccc34)cs2)c1 [II-41] | < 500 | < 500 |
| O=C(Cc1cccc(S(=O)(=O)N[C@H]2CCOC2)c1)Nc1nc(-c2c[nH]c3ncccc23)cs1 [II-42] | < 500 | < 500 |
| CC(=O)N1[C@H](C)CN(c2nc(-c3c[nH]c4ncc(Cl)cc34)cs2)C[C@@H]1C [II-43] | 500 to 5000 | 500 to 5000 |
| O=C(Cc1ccccc1F)N(c1nc(-c2c[nH]c3ncccc23)cs1)C1CC1 [II-44] | < 500 | < 500 |
| O=C(Cc1ccc(F)cc1F)N(c1nc(-c2c[nH]c3ncccc23)cs1)C1CC1 [II-45] | < 500 | < 500 |
| CS(=O)(=O)Nc1cccc(CC(=O)Nc2csc(-c3c[nH]c4ncccc34)n2)c1 [II-46] | < 500 | < 500 |
| CS(=O)(=O)Nc1ccc(CC(=O)Nc2nc(-c3c[nH]c4ncccc34)cs2)c(Cl)c1 [II-47] | < 500 | < 500 |
| CC(C)S(=O)(=O)Nc1ccc(CC(=O)Nc2nc(-c3c[nH]c4ncccc34)cs2)c(Cl)c1 [II-48] | < 500 | < 500 |
| CN1CCCN(S(=O)(=O)c2cccc(CC(=O)Nc3nc(-c4c[nH]c5ncccc45)cs3)c2)CC1 [II-52] | < 500 | < 500 |
| COc1cccc(CC(=O)Nc2csc(-c3c[nH]c4ncccc34)n2)c1 [II-55] | < 500 | < 500 |
| O=C(Cc1ccc(F)cc1F)Nc1csc(-c2c[nH]c3ncccc23)n1 [II-56] | < 500 | < 500 |
| O=C(Cc1cccc(S(=O)(=O)N2CCOCC2)c1)Nc1csc(-c2c[nH]c3ncccc23)n1 [II-57] | 500 to 5000 | < 500 |
| O=C(Cc1cccc(S(=O)(=O)N2CCOCC2)c1)Nc1nnc(-c2c[nH]c3ncccc23)s1 [II-58] | 500 to 5000 | 500 to 5000 |

| Compound | Ki (PKA) [nM] | Ki (ROCK I (AA 6-553)) [nM] |
| --- | --- | --- |
| O=C(Cc1cccc(S(=O)(=O)N2CCOCC2)c1)Nc1cc(-c2c[nH]c3ncccc23)cs1 [II-59] | < 500 | < 500 |
| O=C(Cc1ccccc1F)Nc1csc(-c2c[nH]c3ncccc23)n1 [II-60] | < 500 | < 500 |
| O=C(Cc1ccc(F)cc1)Nc1csc(-c2c[nH]c3ncccc23)n1 [II-61] | < 500 | < 500 |
| O=C(Cc1ccccc1)Nc1csc(-c2c[nH]c3ncccc23)n1 [II-62] | < 500 | < 500 |
| CCN(CC)S(=O)(=O)c1cccc(CC(=O)Nc2csc(-c3c[nH]c4ncccc34)n2)c1 [II-63] | 500 to 5000 | < 500 |
| CCN(CC)S(=O)(=O)c1cccc(CC(=O)Nc2nnc(-c3c[nH]c4ncccc34)s2)c1 [II-64] | 500 to 5000 | 500 to 5000 |
| O=C(NCc1cccc(S(=O)(=O)N2CCOCC2)c1)c1ccc(-c2c[nH]c3ncccc23)s1 [II-65] | < 500 | < 500 |
| O=C(Cc1cccc(S(=O)(=O)N2CCOCC2)c1)Nc1nc(-c2c[nH]c3nccc(F)c23)cs1 [II-66] | 500 to 5000 | < 500 |
| CCN(CC)S(=O)(=O)c1cccc(CC(=O)Nc2nc(-c3c[nH]c4nccc(F)c34)cs2)c1 [II-67] | 500 to 5000 | < 500 |
| O=C(Cc1cccc(O)c1)N(c1nc(-c2c[nH]c3ncccc23)cs1)C1CC1 [II-68] | < 500 | < 500 |
| O=C(Cc1ccc2c(c1)OCO2)N(c1nc(-c2c[nH]c3ncccc23)cs1)C1CC1 [II-69] | < 500 | < 500 |
| COc1cccc(CC(=O)N(c2nc(-c3c[nH]c4ncccc34)cs2)C2CC2)c1 [II-70] | < 500 | < 500 |
| COc1cccc(CNC(=O)c2cc(-c3c[nH]c4ncccc34)cs2)c1 [II-71] | < 500 | < 500 |
| O=C(Cc1cccc(S(=O)(=O)NCC2CCCO2)c1)Nc1nc(-c2c[nH]c3ncccc23)cs1 (centres unmarked) [II-72] | < 500 | < 500 |
| CS(=O)(=O)c1ccc(CC(=O)N(c2nc(-c3c[nH]c4ncccc34)cs2)C2CC2)cc1 [II-73] | 500 to 5000 | < 500 |
| CS(=O)(=O)c1ccc(CC(=O)Nc2nc(-c3c[nH]c4ncccc34)cs2)cc1 [II-74] | 500 to 5000 | < 500 |
| COc1ccc(CC(=O)N(c2nc(-c3c[nH]c4ncccc34)cs2)C2CC2)c(Cl)c1 [II-75] | < 500 | < 500 |
| O=C(Cc1cccc(OCCCC2CCNCC2)c1)N(c1nc(-c2c[nH]c3ncccc23)cs1)C1CC1 [II-76] | 500 to 5000 | < 500 |
